One block for each molecule: values may come before it.
Experiments:
Type in all cases: cell-based
Hep3B [1] = test: Synergy of Hec1 inhibitor with cytotoxic drug (combination index, MTS); parameters: key to Combination Index: CI = (CA,X/ICx,A)+(CB,X/ICx,B) at x% drug effect
Protocol: (§1) Synergy: GI50s for selected drugs were determined and used to calculate a concentration ratio for use synergy assays with Hec1 inhibitors. Cells were treated with drugs 24 hours after being seeded in appropriate seeding numbers into 96 well plates containing low glucose DME with 10% FBS. […] Cell viability was determined by MTS assay using a CellTiter 96® Aqueous non-radioactive cell proliferation assay system (Promega, Madison, Wis. 53711 USA) according to the manufacturer's instructions. Optical density was determined using a Bio-Tek 340 spectrophotometer (Bio-Tek, Winooski, Vt. 05404) and were then processed using Excel (Microsoft, Redmond, Wash. 98052-7329) and GraphPad Prism 5 linear regression software (GraphPad Software, La Jolla, Calif. 92037 USA) to determine concentration-response curves for calculating relative GI50s. Synergy was determined by calculating a combination index value using the formula CI (combination index)=(CA,X/ICx,A)+(CB,X/ICx,B), where CA,X and CB,X are the concentrations of drug A and drug B used in combination to achieve x % drug effect. ICx,A and ICx,B are the concentrations for single agents to achieve the same effect.
(§2) Hec1 inhibitor-responsive cancer cells used for screening were treated with a mixture of Hec1 inhibitor and select anti-cancer drug at appropriate concentration ratios and evaluated for cell viability.

Huh7 [2] = test: as above; parameters: key to Combination Index: CI = (CA,X/ICx,A)+(CB,X/ICx,B) at x% drug effect
Protocol: as §1, §2

K562 [3] = test: as above
Protocol: as §1, §2

MB-231 = test: as above
Protocol: as §1, §2

MB-468 = test: as above
Protocol: as §1, §2

HeLa [4] = test: as above
Protocol: as §1, §2

HepG2 [5] = test: as above; parameters: key: CI = (CA,X/ICx,A)+(CB,X/ICx,B) at x% drug effect
Protocol: as §1, §2

PCL/PRF/5 = test: as above; parameters: key: CI = (CA,X/ICx,A)+(CB,X/ICx,B) at x% drug effect
Protocol: as §1, §2

NCI/ADR-RES = test: Drug sensitivity, MTS assay, drug resistant cell line; settings: Homo sapiens, multi-drug resistant uterine sarcoma
Protocol: (§3) Drug sensitivity: Cell lines were screened for drug sensitivity by treatment with specified drugs 24 hours after seeding in appropriate seeding numbers into 96 well plates containing low glucose DME with 10% FBS. The drug was added to the plate in triplicate wells, and the cells are incubated in drug treated medium for 96 hours before cell viability was determined by MTS assay using CellTiter 96® Aqueous non-radioactive cell proliferation assay system (Promega, Madison, Wis. 53711 USA). The MTS assay was performed according to the manufacturer's instructions. Optical density was measured using a Bio-Tek 340 spectrophotometer (Bio-Tek, Winooski, Vt. 05404) and optical readings were then processed in Excel (Microsoft, Redmond, Wash. 98052-7329) and GraphPad Prism 5 linear regression software (GraphPad Software, La Jolla, Calif. 92037 USA) to determine concentration-response curves for calculating relative GI50s. […] The % growth inhibition of the test drug on cells were calculated as: [1−(Test Value)/(Control Value)]×100; these values were used to plot concentration-response curves, and then analyzed with linear regression software.

K562R = test: as above; settings: Homo sapiens, K-562R, Gleevec resistant myelogenous leukemia
Protocol: as §3

MEX-SA/Dx5 = test: as above; settings: MEX-SA/Dx5, multi-drug resistant uterine sarcoma
Protocol: as §3

Huh7 [6] = test: Drug sensitivity, MTS cell viability assay (GI50)
Protocol: as §3

K562 [7] = test: Drug sensitivity, MTS cell viability assay (GI50); settings: Homo sapiens, K562, 96 h
Protocol: as §3

ZR-75-1 = test: Drug sensitivity, MTS cell viability assay (GI50); settings: Homo sapiens, ZR-75-1, 96 hours
Protocol: as §3

MDA-MB-468 = test: Drug sensitivity, MTS cell viability assay (GI50)
Protocol: as §3

Hep3B [8] = test: Drug sensitivity, MTS cell viability assay (GI50); settings: Homo sapiens, 96 h
Protocol: as §3

MDA-MB-231 = test: Drug sensitivity, MTS cell viability assay (GI50)
Protocol: as §3

T47D = test: Drug sensitivity, MTS cell viability assay (GI50); settings: Homo sapiens, 96 hours
Protocol: as §3

HepG2 [9] = test: Drug sensitivity, MTS cell viability assay (GI50); settings: Homo sapiens; for GI50: HepG2, 96 hours, MTS
Protocol: as §3

Hs578T = test: Drug sensitivity, MTS cell viability assay (GI50); settings: Homo sapiens, Hs-578T, 96 hours
Protocol: as §3

MDA-MB-453 = test: Drug sensitivity, MTS cell viability assay (GI50); settings: Homo sapiens, MDA-MB-453, 96 hours
Protocol: as §3

PLC/PRF/5 = test: Drug sensitivity, MTS cell viability assay (GI50); settings: Homo sapiens, PLC/PRF/5, 96 hours
Protocol: as §3

HeLa [10] = test: Drug sensitivity, MTS cell viability assay (GI50); settings: Homo sapiens, 96 hours
Protocol: as §3

[11] = in combination with doxorubicin
[12] = in combination with Taxol (paclitaxel)
[13] = Homo sapiens, Huh-7, 96 h, Huh7, 96 hours, MTS

- GI50 (K562 [7]): 0.0361 µM
- GI50 (MDA-MB-468; Homo sapiens, MDA-MB-468, 96 h): 0.0107 µM
- GI50 (Hep3B [8]): 0.422 µM
- GI50 (MDA-MB-231; Homo sapiens, MDA-MB-231, 96 h): 0.347 µM
- GI50 (T47D): 0.00943 µM
- GI50 (HepG2 [9]): 0.435 µM
- GI50 (MDA-MB-453): 0.0923 µM
- GI50 (Huh7 [6]; Huh7, 96 hours, MTS): 0.0509 µM
- GI50 (HeLa [10]): 0.637 µM
Compound: CC[C@@]1(O)C(=O)OCc2c1cc1n(c2=O)Cc2cc3c(CN(C)C)c(O)ccc3nc2-1 [topotecan]
- GI50 (ZR-75-1): 0.0363 µM
- GI50 (Hs578T): 4.96 µM
- GI50 (PLC/PRF/5): 0.174 µM

- GI50 (MDA-MB-468; Homo sapiens, MDA-MB-468, 96 h): 3.17 µM
- GI50 (Hep3B [8]): 3.68 µM
- GI50 (MDA-MB-231; Homo sapiens, MDA-MB-231, 96 h): 3.04 µM
- GI50 (T47D): 1.73 µM
- GI50 (HepG2 [9]): 8.25 µM
- GI50 (MDA-MB-453): 2.52 µM
- GI50 (Huh7 [6]; [13]): 4.5 µM
Compound: CNC(=O)c1cc(Oc2ccc(NC(=O)Nc3ccc(Cl)c(C(F)(F)F)c3)cc2)ccn1 [sorafenib]
- GI50 (ZR-75-1): 4.34 µM
- GI50 (PLC/PRF/5): 3.76 µM

- GI50 (MDA-MB-468; Homo sapiens, MDA-MB-468, 96 h): 0.00238 µM
- GI50 (Hep3B [8]): 0.00947 µM
- GI50 (MDA-MB-231; Homo sapiens, MDA-MB-231, 96 h): 0.003 µM
- GI50 (MDA-MB-231; MDA-MB-231, 96 hours): 0.00491 µM
- GI50 (T47D): 0.00319 µM
- GI50 (HepG2 [9]; bound given in μM): > 50 µM
- IC50 (HepG2 [9]; HepG2, Taxol-resistant): > 10 µM
- GI50 (MDA-MB-453): 0.00142 µM
- GI50 (Huh7 [6]; Huh7, 96 hours, MTS): 0.0935 µM
- GI50 (HeLa [10]): 0.0078 µM
- GI50 (K562R): 0.0345 µM
Compound: CC(=O)O[C@H]1C(=O)[C@@]2(C)[C@H]([C@H](OC(=O)c3ccccc3)[C@]3(O)C[C@H](OC(=O)[C@H](O)[C@@H](NC(=O)c4ccccc4)c4ccccc4)C(C)=C1C3(C)C)[C@]1(OC(C)=O)CO[C@@H]1C[C@@H]2O [paclitaxel]
- GI50 (ZR-75-1; bound given in μM): > 10 µM
- GI50 (Hs578T): 0.00839 µM
- GI50 (PLC/PRF/5): 0.00858 µM
- GI50 (NCI/ADR-RES): 2.33 µM
- GI50 (MEX-SA/Dx5): 6.25 µM

Second part, the molecule before the results:

Compound: COc1ccc(Oc2cc(C)c(-c3csc(NC(=O)c4ccnc(F)c4)n3)c(C)c2)cc1 [compound 101015, 2-fluoro-N-(4-(4-(4-methoxyphenoxy)-2,6-dimethylphenyl)thiazol-2-yl)isonicotinamide]
- Combination Index (Hep3B [1]; in combination with KX01): 2.32
- Combination Index (Hep3B [1]; in combination with Taxol): 2.38
- Combination Index (Hep3B [1]; [11]): 2.00
- Combination Index (Hep3B [1]; in combination with sorafenib): 1.91
- Combination Index (Hep3B [1]; in combination with topotecan): 1.05
- Combination Index (Huh7 [2]; in combination with KX01 (KXO1)): 1.08
- Combination Index (Huh7 [2]; [12]): 0.32
- Combination Index (Huh7 [2]; [11]): 0.54
- Combination Index (Huh7 [2]; in combination with sorafenib): 1.08
- Combination Index (Huh7 [2]; in combination with topotecan): 0.62
- Combination Index (K562 [3]; [12]): 0.62
- Combination Index (K562 [3]; [11]): 0.62
- Combination Index (K562 [3]; in combination with topotecan): 1.12
- Combination Index (MB-231; [12]): 0.98
- Combination Index (MB-231; [11]): 1.75
- Combination Index (MB-231; in combination with topotecan): 0.85
- Combination Index (MB-468; in combination with Taxol): 1.16
- Combination Index (MB-468; [11]): 1.23
- Combination Index (MB-468; in combination with topotecan): 0.74
- Combination Index (HeLa [4]; in combination with Taxol): 1.01
- Combination Index (HeLa [4]; [11]): 6.83
- Combination Index (HeLa [4]; in combination with topotecan): 1.58
- Combination Index (HepG2 [5]; in combination with KX01): 1.68
- Combination Index (HepG2 [5]; [11]): 1.74
- Combination Index (HepG2 [5]; in combination with sorafenib): 0.89
- Combination Index (HepG2 [5]; in combination with topotecan): 1.92
- Combination Index (PCL/PRF/5; in combination with KX01): 1.31
- Combination Index (PCL/PRF/5; in combination with Taxol): 0.99
- Combination Index (PCL/PRF/5; [11]): 1.65
- Combination Index (PCL/PRF/5; in combination with sorafenib): 1.15
- Combination Index (PCL/PRF/5; in combination with topotecan): 1.17
- GI50 (NCI/ADR-RES): 0.0216 µM
- GI50 (K562R): 0.026 µM
- GI50 (MEX-SA/Dx5): 0.0349 µM

Compound: O=C(Cc1ccc(-c2ccc(OCCN3CCOCC3)cc2)cn1)NCc1ccccc1 [KX01]
- GI50 (Huh7 [6]; Huh7, 96 hours, MTS): 0.0272 µM

Compound: COc1cccc2c1C(=O)c1c(O)c3c(c(O)c1C2=O)C[C@@](O)(C(=O)CO)C[C@@H]3O[C@H]1C[C@H](N)[C@H](O)[C@H](C)O1 [doxorubicin]
- GI50 (K562 [7]): 0.0362 µM
- GI50 (ZR-75-1): 0.0929 µM
- GI50 (MDA-MB-468; Homo sapiens, MDA-MB-468, 96 h): 0.0283 µM
- GI50 (MDA-MB-468; MDA-MB-468, 96 hours): 0.027 µM
- GI50 (Hep3B [8]): 0.248 µM
- GI50 (T47D): 0.0119 µM
- GI50 (HepG2 [9]): 0.746 µM
- GI50 (Hs578T): 0.711 µM
- GI50 (MDA-MB-453): 0.158 µM
- GI50 (Huh7 [6]; [13]): 0.183 µM
- GI50 (Huh7 [6]; Homo sapiens, Huh-7, Huh7, unit inferred): 0.183 µM
- GI50 (PLC/PRF/5): 0.0697 µM
- GI50 (HeLa [10]): 0.242 µM
